Measurements published in patent publication US12187701B2, “Taire family kinase inhibitors and uses thereof” (Dana-Farber Cancer Institute, Inc., priority 2018, dated 2025).
Like-named read-outs stand apart in the source and are kept apart here.

What was measured:
Cdk14/CycY = Cdk14/CycY (Homo sapiens (Human), UniProt O94921); assay: Lanthascreen Eu kinase binding assay for Cdk14/CycY with 30 minute pre-incubation; details: 30 minute pre-incubation of kinase with compound; read-out: IC50 CDK14 binding by Lanthascreen
Protocol: Lanthascreen Eu kinase binding assays were conducted for Cdk14/CycY largely as performed in the commercial assay service by Life Technologies, but included a 30 minute pre-incubation step of the kinase with candidate compounds to facilitate covalent bond formation.

HCT116 cells = assay: Antiproliferation assay, Cell Titer Glo, 72 hours; format: cell-based
Protocol: HCT116 cells were plated in 384-well plates at 750 cells/well in 50 ul fresh media (McCoy's 5A+10% FBS+1% Penn/Strep) and treated with 0.1 μl candidate compounds in four-fold dilution series using the Janus pinner. Cells were incubated with compounds for 72 hours in 37° C. 5% CO2. Anti-proliferative effects of these compounds were assessed 72 hours after compound addition using Cell Titer Glo (Promega cat #G7571) as described in product manual by luminescence measurements using an Envision platereader. All proliferation assays were performed in biological quadruplicate. IC50 values were determined using a non-linear regression curve fit in GraphPad Prism 6.

Chain of Cdk14/CycY (O94921 whole entry): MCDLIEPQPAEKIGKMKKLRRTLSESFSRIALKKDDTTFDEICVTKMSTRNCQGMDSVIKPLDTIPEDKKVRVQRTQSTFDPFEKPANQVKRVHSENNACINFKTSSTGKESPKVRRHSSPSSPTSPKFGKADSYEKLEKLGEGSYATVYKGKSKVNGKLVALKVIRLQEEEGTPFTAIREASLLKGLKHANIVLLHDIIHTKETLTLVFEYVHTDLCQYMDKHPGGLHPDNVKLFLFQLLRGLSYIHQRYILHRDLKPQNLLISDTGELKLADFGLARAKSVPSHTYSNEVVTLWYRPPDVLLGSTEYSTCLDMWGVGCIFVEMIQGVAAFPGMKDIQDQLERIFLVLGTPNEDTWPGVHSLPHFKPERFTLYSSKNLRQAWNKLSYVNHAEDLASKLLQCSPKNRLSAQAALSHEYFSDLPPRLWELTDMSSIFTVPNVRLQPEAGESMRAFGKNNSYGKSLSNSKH
Chain of Cdk14/CycY (Q8ND76 whole entry partner): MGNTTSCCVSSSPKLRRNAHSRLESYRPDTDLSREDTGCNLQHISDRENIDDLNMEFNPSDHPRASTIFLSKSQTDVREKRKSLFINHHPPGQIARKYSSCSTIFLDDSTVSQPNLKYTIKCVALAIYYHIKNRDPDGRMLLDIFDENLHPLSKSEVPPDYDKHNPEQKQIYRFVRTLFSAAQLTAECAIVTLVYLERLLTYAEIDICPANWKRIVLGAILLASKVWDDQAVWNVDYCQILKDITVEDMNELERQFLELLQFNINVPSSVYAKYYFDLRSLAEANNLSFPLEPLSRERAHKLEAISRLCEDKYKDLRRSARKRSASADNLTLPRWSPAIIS

Structure (SMILES)	IC50 (Cdk14/CycY)	IC50 (HCT116 cells; Homo sapiens, HCT-116, 72 h)	IC50 (HCT116 cells)
C=CC(=O)Nc1cccc(S(=O)(=O)N2CCC(NC(=O)c3c(NC(=O)c4c(Cl)cccc4Cl)cnn3C)CC2)c1 [FMF-04-120-1, N-(1-((3-acrylamidophenyl)sulfonyl)piperidin-4-yl)-4-(2,6-dichlorobenzamido)-1-methyl-1H-pyrazole-5-carboxamide]	> 1 µM	2.42 µM	–
C=CC(=O)Nc1ccc(N2CC[C@@H](NC(=O)c3n[nH]cc3NC(=O)c3c(Cl)cccc3Cl)C2)cc1 [FMF-05-075-1, (R)—N-(1-(4-acrylamidophenyl)pyrrolidin-3-yl)-4-(2,6-dichlorobenzamido)-1H-pyrazole-3-carboxamide]	0.267 µM	0.064 µM	–
CN(C)C/C=C/C(=O)Nc1cccc(S(=O)(=O)N2CCC[C@@H](NC(=O)c3n[nH]cc3NC(=O)c3c(Cl)cccc3Cl)C2)c1 [FMF-04-057-2, (R,E)-4-(2,6-dichlorobenzamido)-N-(1-((3-(4-(dimethylamino)but-2-enamido)phenyl)sulfonyl)piperidin-3-yl)-1H-pyrazole-3-carboxamide]	> 1 µM	9.84 µM	–
C=CC(=O)Nc1ccc(CN2CC[C@H](NC(=O)c3n[nH]cc3NC(=O)c3c(Cl)cccc3Cl)C2)cc1 [FMF-05-070-1, (S)—N-(1-(4-acrylamidobenzyl)pyrrolidin-3-yl)-4-(2,6-dichlorobenzamido)-1H-pyrazole-3-carboxamide]	0.572 µM	0.031 µM	–
C=CC(=O)Nc1cccc(S(=O)(=O)N2CCC[C@@H](NC(=O)c3n[nH]cc3NC(=O)c3c(Cl)cccc3Cl)C2)c1 [FMF-04-057-1, (R)—N-(1-((3-acrylamidophenyl)sulfonyl)piperidin-3-yl)-4-(2,6-dichlorobenzamido)-1H-pyrazole-3-carboxamide]	0.836 µM	> 10 µM	–
CN(C)C/C=C/C(=O)Nc1ccc(N2CC[C@@H](NC(=O)c3n[nH]cc3NC(=O)c3c(Cl)cccc3Cl)C2)cc1 [FMF-05-075-2, (R,E)-4-(2,6-dichlorobenzamido)-N-(1-(4-(4-(dimethylamino)but-2-enamido)phenyl)pyrrolidin-3-yl)-1H-pyrazole-3-carboxamide]	0.738 µM	0.714 µM	–
C=CC(=O)Nc1cccc(N2CCC(NC(=O)c3n[nH]cc3NC(=O)c3c(Cl)cccc3Cl)C2)c1 (stereo in doubt) [FMF-05-086-1, (S)—N-(1-(3-acrylamidophenyl)pyrrolidin-3-yl)-4-(2,6-dichlorobenzamido)-1H-pyrazole-3-carboxamide]	1.1 µM	–	0.826 µM
C=CC(=O)Nc1cccc(CN2CC[C@H](NC(=O)c3n[nH]cc3NC(=O)c3c(Cl)cccc3Cl)C2)c1 [FMF-05-069-1, (S)—N-(1-(3-acrylamidobenzyl)pyrrolidin-3-yl)-4-(2,6-dichlorobenzamido)-1H-pyrazole-3-carboxamide]	0.15 µM	0.027 µM	–
C=CC(=O)Nc1ccc(CN2CC[C@@H](NC(=O)c3n[nH]cc3NC(=O)c3c(Cl)cccc3Cl)C2)cc1 [FMF-05-072-1, (R)—N-(1-(4-acrylamidobenzyl)pyrrolidin-3-yl)-4-(2,6-dichlorobenzamido)-1H-pyrazole-3-carboxamide]	0.257 µM	< 0.001 µM	–
C=CC(=O)N1CCC(NC(=O)c2n[nH]cc2NC(=O)c2c(Cl)cccc2Cl)CC1 [FMF-03-177-1, N-(1-acryloylpiperidin-4-yl)-4-(2,6-dichlorobenzamido)-1H-pyrazole-3-carboxamide]	0.401 µM	0.341 µM	–
C=CC(=O)Nc1ccc(S(=O)(=O)N2CCC(NC(=O)c3n[nH]cc3NC(=O)c3c(Cl)cccc3Cl)CC2)cc1 [FMF-03-197-1, N-(1-((4-acrylamidophenyl)sulfonyl)piperidin-4-yl)-4-(2,6-dichlorobenzamido)-1H-pyrazole-3-carboxamide]	0.062 µM	0.031 µM	–
C=CC(=O)Nc1ccc(S(=O)(=O)N2CC[C@@H](NC(=O)c3n[nH]cc3NC(=O)c3c(Cl)cccc3Cl)C2)cc1 [FMF-05-066-1, (R)—N-(1-((4-acrylamidophenyl)sulfonyl)pyrrolidin-3-yl)-4-(2,6-dichlorobenzamido)-1H-pyrazole-3-carboxamide]	> 10 µM	3 µM	–
CN(C)C/C=C/C(=O)Nc1ccc(C(=O)Nc2cccc(NC(=O)c3n[nH]cc3NC(=O)c3c(Cl)cccc3Cl)c2)cc1 [FMF-03-204-1, (E)-4-(2,6-dichlorobenzamido)-N-(3-(4-(4-(dimethylamino)but-2-enamido)benzamido)phenyl)-1H-pyrazole-3-carboxamide]	0.072 µM	0.024 µM	–
CN(C)C/C=C/C(=O)Nc1cccc(S(=O)(=O)N2CC[C@H](NC(=O)c3n[nH]cc3NC(=O)c3c(Cl)cccc3Cl)C2)c1 [FMF-05-068-2, (S,E)-4-(2,6-dichlorobenzamido)-N-(1-((3-(4-(dimethylamino)but-2-enamido)phenyl)sulfonyl)pyrrolidin-3-yl)-1H-pyrazole-3-carboxamide]	0.308 µM	> 10 µM	–
CN(C)C/C=C/C(=O)Nc1ccc(C(=O)N2CCC[C@@H](NC(=O)c3n[nH]cc3NC(=O)c3c(Cl)cccc3Cl)C2)cc1 [FMF-04-058-2, (R,E)-4-(2,6-dichlorobenzamido)-N-(1-(4-(4-(dimethylamino)but-2-enamido)benzoyl)piperidin-3-yl)-1H-pyrazole-3-carboxamide]	> 1 µM	0.726 µM	–
C=CC(=O)N1CCC[C@H](NC(=O)c2n[nH]cc2NC(=O)c2c(Cl)cccc2Cl)C1 [FMF-03-184-1, (S)—N-(1-acryloylpiperidin-3-yl)-4-(2,6-dichlorobenzamido)-1H-pyrazole-3-carboxamide]	0.479 µM	0.737 µM	–
C=CC(=O)Nc1cccc(S(=O)(=O)N2CC[C@H](NC(=O)c3n[nH]cc3NC(=O)c3c(Cl)cccc3Cl)C2)c1 [FMF-05-068-1, (S)—N-(1-((3-acrylamidophenyl)sulfonyl)pyrrolidin-3-yl)-4-(2,6-dichlorobenzamido)-1H-pyrazole-3-carboxamide]	0.45 µM	6.2 µM	–
C=CC(=O)Nc1ccc(CN2CCC(NC(=O)c3n[nH]cc3NC(=O)c3c(Cl)cccc3Cl)CC2)cc1 [FMF-03-199-1, N-(1-(4-acrylamidobenzyl)piperidin-4-yl)-4-(2,6-dichlorobenzamido)-1H-pyrazole-3-carboxamide]	0.01 µM	< 0.0001 µM	–
CN(C)C/C=C/C(=O)Nc1ccc(NC(=O)c2n[nH]cc2NC(=O)c2c(Cl)cccc2Cl)cc1 [FMF-03-182-2, (E)-4-(2,6-dichlorobenzamido)-N-(4-(4-(dimethylamino)but-2-enamido)phenyl)-1H-pyrazole-3-carboxamide]	0.082 µM	0.395 µM	–
C=CC(=O)Nc1cccc(S(=O)(=O)N2CCC(NC(=O)c3nscc3NC(=O)c3c(Cl)cccc3Cl)CC2)c1 [FMF-04-089-1, N-(1-((3-acrylamidophenyl)sulfonyl)piperidin-4-yl)-4-(2,6-dichlorobenzamido)isothiazole-3-carboxamide]	> 1 µM	0.563 µM	–
C=CC(=O)Nc1cccc(S(=O)(=O)N2CCC(N(C)C(=O)c3n[nH]cc3NC(=O)c3c(Cl)cccc3Cl)CC2)c1 [FMF-04-086-1, N-(1-((3-acrylamidophenyl)sulfonyl)piperidin-4-yl)-4-(2,6-dichlorobenzamido)-N-methyl-1H-pyrazole-3-carboxamide]	> 1 µM	> 10 µM	–
CN(C)C/C=C/C(=O)Nc1ccc(C(=O)N2CCC(NC(=O)c3n[nH]cc3NC(=O)c3c(Cl)cccc3Cl)CC2)cc1 [FMF-03-187-1, (E)-4-(2,6-dichlorobenzamido)-N-(1-(4-(4-(dimethylamino)but-2-enamido)benzoyl)piperidin-4-yl)-1H-pyrazole-3-carboxamide]	0.082 µM	0.071 µM	–
COc1cc(OC)c(C(=O)Nc2c[nH]nc2C(=O)NC2CCN(S(=O)(=O)c3cccc(NC(=O)/C=C/CN(C)C)c3)CC2)c(OC)c1 [FMF-05-028-2, (E)-N-(1-((3-(4-(dimethylamino)but-2-enamido)phenyl)sulfonyl)piperidin-4-yl)-4-(2,4,6-trimethoxybenzamido)-1H-pyrazole-3-carboxamide]	0.221 µM	> 10 µM	–
C=CC(=O)Nc1cccc(C(=O)Nc2cccc(NC(=O)c3n[nH]cc3NC(=O)c3c(Cl)cccc3Cl)c2)c1 [FMF-04-011-1, N-(3-(3-acrylamidobenzamido)phenyl)-4-(2,6-dichlorobenzamido)-1H-pyrazole-3-carboxamide]	0.308 µM	0.031 µM	–
CN(C)C/C=C/C(=O)Nc1cccc(N2CC[C@@H](NC(=O)c3n[nH]cc3NC(=O)c3c(Cl)cccc3Cl)C2)c1 [FMF-05-087-2, (R,E)-4-(2,6-dichlorobenzamido)-N-(1-(3-(4-(dimethylamino)but-2-enamido)phenyl)pyrrolidin-3-yl)-1H-pyrazole-3-carboxamide]	1.3 µM	0.123 µM	–
CN(C)C/C=C/C(=O)N1CCC(NC(=O)c2n[nH]cc2NC(=O)c2c(Cl)cccc2Cl)CC1 [FMF-03-177-2, (E)-4-(2,6-dichlorobenzamido)-N-(1-(4-(dimethylamino)but-2-enoyl)piperidin-4-yl)-1H-pyrazole-3-carboxamide]	0.208 µM	1.06 µM	–
C=CC(=O)Nc1cccc(C(=O)Nc2ccc(NC(=O)c3n[nH]cc3NC(=O)c3c(Cl)cccc3Cl)c(C)c2)c1 [FMF-04-085-1, N-(4-(3-acrylamidobenzamido)-2-methylphenyl)-4-(2,6-dichlorobenzamido)-1H-pyrazole-3-carboxamide]	> 1 µM	–	–
